Results reported in patent US20220259193A1, “KCNT1 INHIBITORS AND METHODS OF USE” (Praxis Precision Medicines, Inc., priority 2019, published 2022).

Molecular target: T1, KCNT1 (KNa1.1, Slack) (Homo sapiens, UniProt Q5JUK3)
T1 construct: expressed in transfected cells; host or cells: HEK-TREX (tetracycline-inducible HEK cell line)
T1 sequence (Q5JUK3 1-1230): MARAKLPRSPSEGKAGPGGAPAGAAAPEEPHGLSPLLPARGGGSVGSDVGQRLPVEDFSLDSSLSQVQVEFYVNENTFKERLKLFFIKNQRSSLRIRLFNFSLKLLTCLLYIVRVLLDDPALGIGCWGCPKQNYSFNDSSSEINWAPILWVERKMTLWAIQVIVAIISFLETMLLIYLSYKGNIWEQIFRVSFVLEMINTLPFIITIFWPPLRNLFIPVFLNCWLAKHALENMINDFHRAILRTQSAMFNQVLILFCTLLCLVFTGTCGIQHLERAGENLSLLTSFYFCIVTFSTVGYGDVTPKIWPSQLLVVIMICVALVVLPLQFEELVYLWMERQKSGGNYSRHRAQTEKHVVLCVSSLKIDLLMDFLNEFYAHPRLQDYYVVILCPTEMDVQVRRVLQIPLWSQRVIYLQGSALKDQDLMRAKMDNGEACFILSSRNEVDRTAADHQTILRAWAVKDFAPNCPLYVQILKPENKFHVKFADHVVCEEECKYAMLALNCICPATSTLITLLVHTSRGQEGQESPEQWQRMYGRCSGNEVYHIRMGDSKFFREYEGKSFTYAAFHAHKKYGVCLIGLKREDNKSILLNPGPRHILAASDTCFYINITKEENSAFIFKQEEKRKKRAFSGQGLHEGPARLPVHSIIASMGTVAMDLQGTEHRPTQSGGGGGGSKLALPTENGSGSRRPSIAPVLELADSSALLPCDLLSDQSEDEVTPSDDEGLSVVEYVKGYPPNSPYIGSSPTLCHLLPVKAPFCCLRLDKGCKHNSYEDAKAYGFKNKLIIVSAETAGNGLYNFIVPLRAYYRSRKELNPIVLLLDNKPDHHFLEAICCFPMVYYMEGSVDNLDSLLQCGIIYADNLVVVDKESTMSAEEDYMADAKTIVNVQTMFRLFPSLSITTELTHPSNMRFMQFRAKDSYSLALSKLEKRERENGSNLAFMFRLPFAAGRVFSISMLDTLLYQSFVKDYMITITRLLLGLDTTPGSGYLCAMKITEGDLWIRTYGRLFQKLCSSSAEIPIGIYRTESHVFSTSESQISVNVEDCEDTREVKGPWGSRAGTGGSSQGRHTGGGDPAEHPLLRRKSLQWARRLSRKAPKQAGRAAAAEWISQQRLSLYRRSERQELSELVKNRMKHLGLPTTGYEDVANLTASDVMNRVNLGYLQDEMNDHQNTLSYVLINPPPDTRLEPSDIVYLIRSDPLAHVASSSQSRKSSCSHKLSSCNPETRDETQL
Experiment: KCNT1 patch clamp assay (SyncroPatch 384PE automated patch clamp)
Type: cell-based
Details: tetracycline inducible HEK-TREX cell line; perforated patch; step from −80 mV to 0 mV; room temperature; read-out: KCNT1-WT IC50
Summary of the method: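 Tetracycline-inducible HEK-TREX cells; perforated-patch (10 μM escin) population recordings at room temperature, holding −80 mV with 100 ms step to 0 mV.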

Row | SMILES | IC50 [µM]
1 | CC(NC(=O)c1cc(C2CC2)nn1C)c1nc(-c2cccc(F)c2)no1 (stereo not shown) [Compound 5] | ≤ 1
2 | Cn1nc(C(F)(F)F)cc1C(=O)NC(CC(=O)N1CC(O)C1)c1nc(-c2cccc(F)c2)no1 (stereo not shown) [Compound 124] | ≥ 20
3 | Cn1nc(C(F)(F)F)cc1C(=O)NC1(c2nc(-c3cccc(F)c3)no2)COC1 [Compound 119] | ≤ 1
4 | C[C@H](NC(=O)c1cn(C)nc1C1CCOCC1)c1nc(-c2cccc(F)c2)no1 [Compound 166] | 1 to 20
5 | COC[C@H](NC(=O)c1cc(C(F)(F)F)nn1C)c1nc(-c2cccc(C)c2)no1 (single isomer, unassigned) [Compound 81] | ≤ 1
6 | CC[C@H](NC(=O)c1cc(C(F)(F)F)nn1C)c1nc(-c2ccnc(C)c2)no1 [Compound 199, (S)-1-methyl-N-(1-(3-(2-methylpyridin-4-yl)-1,2,4-oxadiazol-5-yl)propyl)-3-(trifluoromethyl)-1H-pyrazole-5-carboxamide] | ≤ 1
7 | CC[C@H](NC(=O)c1ccnn1Cc1ccccc1)c1nc(-c2ccnc(C)c2)no1 [Compound 219, (S)-1-benzyl-N-(1-(3-(2-methylpyridin-4-yl)-1,2,4-oxadiazol-5-yl)propyl)-1H-pyrazole-5-carboxamide] | ≤ 1
8 | C[C@@H](NC(=O)c1cc(C2CC2)nn1C)c1nc(-c2cccc(F)c2)no1 (single isomer, unassigned) [Compound 93] | 1 to 20
9 | CC(c1nc(-c2cccc(CO)c2)no1)N(C)C(=O)c1cc(C(F)(F)F)nn1C (stereo not shown) [Compound 177, N-(1-(3-(3-(hydroxymethyl)phenyl)-1,2,4-oxadiazol-5-yl)ethyl)-N,1-dimethyl-3-(trifluoromethyl)-1H-pyrazole-5-carboxamide] | ≥ 20
10 | C[C@H](NC(=O)c1cc(C2CC2)nn1C)c1nc(-c2cccc(F)c2)no1 (single isomer, unassigned) [Compound 94] | ≥ 20
11 | CO[C@@H](C)[C@H](NC(=O)c1cc(C(F)(F)F)nn1C)c1nc(-c2cccc(F)c2)no1 [Compound 142] | 1 to 20
12 | CO[C@H](C)[C@@H](NC(=O)c1cc(C(F)(F)F)nn1C)c1nc(-c2cccc(F)c2)no1 [Compound 139] | ≤ 1
13 | C[C@H](NC(=O)c1cc(C(F)(F)F)nn1C)c1nc(-c2ccnc(C(F)(F)F)n2)no1 [Compound 242, (S)-1-methyl-3-(trifluoromethyl)-N-(1-(3-(2-(trifluoromethyl)pyrimidin-4-yl)-1,2,4-oxadiazol-5-yl)ethyl)-1H-pyrazole-5-carboxamide] | 1 to 20
14 | Cc1nn(C2CC2)cc1C(=O)N[C@@H](C)c1nc(-c2cccc(F)c2)no1 [Compound 161] | 1 to 20
15 | CC[C@H](NC(=O)c1cc(C(F)(F)F)nn1C(F)F)c1nc(-c2cccc(F)c2)no1 [Compound 112] | ≤ 1
16 | COC(=O)NCC(NC(=O)c1cc(C(F)(F)F)nn1C)c1nc(-c2cccc(F)c2)no1 (stereo not shown) [Compound 168] | 1 to 20
17 | Cc1nn(CC(F)(F)F)cc1C(=O)N[C@@H](C)c1nc(-c2cccc(F)c2)no1 [Compound 164] | 1 to 20
18 | Cn1nc(C(F)(F)F)cc1C(=O)N[C@H](CCS(C)(=O)=O)c1nc(-c2cccc(F)c2)no1 (single isomer, unassigned) [Compound 143] | ≥ 20
19 | Cc1nn(C(C)C)cc1C(=O)N[C@@H](C)c1nc(-c2cc(F)cc(Cl)c2)no1 [Compound 91] | ≤ 1
20 | C[C@H](NC(=O)c1cc(C(F)(F)F)nn1CCN(C)C)c1nc(-c2ccnc(C(F)(F)F)c2)no1 [Compound 243, (S)-1-(2-(dimethylamino)ethyl)-3-(trifluoromethyl)-N-(1-(3-(2-(trifluoromethyl)pyridin-4-yl)-1,2,4-oxadiazol-5-yl)ethyl)-1H-pyrazole-5-carboxamide] | ≤ 1
21 | C[C@H](NC(=O)c1cn(C)nc1C(F)(F)F)c1nc(-c2cccc(F)c2)no1 [Compound 160] | 1 to 20
22 | CN(C)C(=O)C[C@H](NC(=O)c1cc(C(F)(F)F)nn1C)c1nc(-c2cccc(F)c2)no1 (single isomer, unassigned) [Compound 136] | 1 to 20
23 | C[C@H](NC(=O)c1cc(C(F)F)nn1C)c1nc(-c2ccnc(C(F)(F)F)c2)no1 [Compound 238] | ≤ 1

The remaining lines, values ahead:

Row | IC50 [µM] | SMILES
24 | 1 to 20 | C[C@H](NC(=O)OC(C)(C)C)c1nc(-c2cccc(F)c2)no1 [Compound 281, tert-butyl N-[(1S)-1-[3-(3-fluorophenyl)-1,2,4-oxadiazol-5-yl]ethyl]carbamate]
25 | ≤ 1 | C[C@H](NC(=O)c1ccn(Cc2ccccc2)n1)c1nc(-c2ccnc(C3CC3)c2)no1 [Compound 306, 1-benzyl-N-[(1S)-1-[3-(2-cyclopropyl-4-pyridyl)-1,2,4-oxadiazol-5-yl]ethyl]pyrazole-3-carboxamide]
26 | ≥ 20 | CC[C@H](NC(=O)c1cc(C)n(-c2cccnc2)n1)c1nc(-c2ccnc(C)c2)no1 [Compound 299, (S)-5-methyl-N-(1-(3-(2-methylpyridin-4-yl)-1,2,4-oxadiazol-5-yl)propyl)-1-(pyridin-3-yl)-1H-pyrazole-3-carboxamide]
27 | ≤ 1 | C[C@H](NC(=O)OC(C)(C)C)c1nc(-c2ccnc(C3CC3)c2)no1 [Compound 288, tert-butyl (S)-(1-(3-(2-cyclopropylpyridin-4-yl)-1,2,4-oxadiazol-5-yl)ethyl)carbamate]
28 | ≤ 1 | CC(C)COC(=O)N[C@@H](C)c1nc(-c2ccnc(C3CC3)c2)no1 [Compound 275]
29 | ≤ 1 | CC(C)c1cc(-c2noc([C@H](C)NC(=O)c3cc(C(F)(F)F)nn3C)n2)ccn1 [Compound 269, (S)—N-(1-(3-(2-isopropylpyridin-4-yl)-1,2,4-oxadiazol-5-yl)ethyl)-1-methyl-3-(trifluoromethyl)-1H-pyrazole-5-carboxamide]
30 | ≤ 1 | CC[C@@H](NC(=O)c1cc(C(F)(F)F)nn1C)c1nc(-c2ccnc(C3CC3)c2)no1 [Compound 266, N-[(1R)-1-[3-(2-cyclopropyl-4-pyridyl)-1,2,4-oxadiazol-5-yl]propyl]-2-methyl-5-(trifluoromethyl)pyrazole-3-carboxamide]
31 | 1 to 20 | C[C@H](NC(=O)OC(C)(C)C)c1nc(-c2ccnc(OC3CC3)c2)no1 [Compound 292, tert-butyl (S)-(1-(3-(2-cyclopropoxypyridin-4-yl)-1,2,4-oxadiazol-5-yl)ethyl)carbamate]
32 | 1 to 20 | C[C@H](NC(=O)c1cc(C(F)(F)F)nn1C)c1nc(-c2ccnc(C#N)c2)no1 [Compound 267, (S)—N-(1-(3-(2-cyanopyridin-4-yl)-1,2,4-oxadiazol-5-yl)ethyl)-1-methyl-3-(trifluoromethyl)-1H-pyrazole-5-carboxamide]
33 | ≥ 20 | C[C@H](NC(=O)c1cc(C(F)(F)F)nn1C)c1nc(-c2ccnc(CN(C)C)c2)no1 [Compound 260, (S)—N-(1-(3-(2-((dimethylamino)methyl)pyridin-4-yl)-1,2,4-oxadiazol-5-yl)ethyl)-1-methyl-3-(trifluoromethyl)-1H-pyrazole-5-carboxamide]
34 | ≥ 20 | C[C@H](NC(=O)c1cc(C(F)(F)F)nn1C)c1nc(-c2ccnc(CN3CCCC3)c2)no1 [Compound 261, (S)-1-methyl-N-(1-(3-(2-(pyrrolidin-1-ylmethyl)pyridin-4-yl)-1,2,4-oxadiazol-5-yl)ethyl)-3-(trifluoromethyl)-1H-pyrazole-5-carboxamide]
35 | 1 to 20 | CCOCc1cc(-c2noc([C@H](C)NC(=O)c3cc(C(F)(F)F)nn3C)n2)ccn1 [Compound 245, (S)—N-(1-(3-(2-(ethoxymethyl)pyridin-4-yl)-1,2,4-oxadiazol-5-yl)ethyl)-1-methyl-3-(trifluoromethyl)-1H-pyrazole-5-carboxamide]
36 | ≤ 1 | CCc1cc(-c2noc([C@H](C)NC(=O)c3cc(C(F)(F)F)nn3C)n2)ccn1 [Compound 268, (S)—N-(1-(3-(2-ethylpyridin-4-yl)-1,2,4-oxadiazol-5-yl)ethyl)-1-methyl-3-(trifluoromethyl)-1H-pyrazole-5-carboxamide]
37 | ≤ 1 | CC[C@H](NC(=O)OC(C)(C)C)c1nc(-c2ccnc(C3CC3)c2)no1 [Compound 247, tert-butyl (S)-(1-(3-(2-cyclopropylpyridin-4-yl)-1,2,4-oxadiazol-5-yl)propyl)carbamate]
